Read-outs that look alike come from different tables or passages of the source.
Key:
[1] = test system: cyclooxgenase-2 (COX-2); assay: RNA expression of COX-2 (RT-PCR) in IL-1β stimulated RAC; assay type: cell-based, Rabbit; settings: for Effect on COX2 expression (in words): IL-1β stimulated RAC; for COX2 Expression: relative RNA expression (untreated = 1.0), GAPDH reference, 24 h pre-treatment, IL-1β 10 ng/ml 48 h, green tea extract 50 μM, collagen 0.5 mg/ml, chondroitin 200 μg/ml
Experimental: (§1) An in vitro study was run to evaluate the efficacy of a composition containing chondroitin, hydrolysed collagen and green tea extract on Rabbit Articular Chondrocytes (RAC). RAC were cultured in DMEM supplemented with 10% Fetal Calf Serum, glutamine and 1% penicillin/streptomycin (Gibco, Life Technologies AG, Switzerland) at 37° C. in an incubator with an atmosphere of 5% CO2.
(§2) RAC were plated in 6 well plates (3×10^5 cells/cm2). The medium was replaced with fresh medium containing each compound chondroitin, hydrolysed collagen and green tea extract or a mixture of all three compounds for 24 hours prior to stimulation with IL-1β (10 ng/ml) (Merck Millipore, USA). RAC were then incubated for 48, hours after which RNA expression of cyclooxgenase-2 (COX-2), inducible isoform Nitric oxide Synthase (iNoS) and Matrix Metallopeptidase-13 (MMP13) was measured as markers of arthritis.
(§3) NO and PGE2 production was measured using Cayman Chemicals (Bertin Pharma, France) following the manufacturer's protocol. NO production was estimated spectrophotometrically by measuring the accumulation of nitrites in the culture supernatants by Griess reaction using a standard curve prepared with sodium nitrite. PGE2 was estimated using a highly sensitive and specific Enzyme Immunoassay Kit. RNA extraction was performed by extracting RNA using the NucleoSpin™ RNA II Kit (Macherey-Nagel, Hoerdt, France) as per manufacturer's instructions. RNA was reverse-transcribed with SupersScript III (Life Technologies) and real-time polymerase chain reaction (RT-PCR) was performed with SYBR Select mix (Life Technologies). Primer sequences COX-2, iNoS and MMP13 was used to quantify the relative RNA expression. Primer sequence for GAPDH was used as the reference gene.

[2] = test system: inducible isoform Nitric oxide Synthase (iNoS); assay: RNA expression of iNoS (RT-PCR) in IL-1β stimulated RAC; assay type: cell-based, Rabbit; settings: for Effect on iNos expression (in words): IL-1β stimulated RAC; for iNoS Expression: relative RNA expression (untreated = 1.0), GAPDH reference, 24 h pre-treatment, IL-1β 10 ng/ml 48 h, green tea extract 50 μM, collagen 0.5 mg/ml, chondroitin 200 μg/ml
Experimental: as §1, §2, §3

[3] = test system: Matrix Metallopeptidase-13 (MMP13); assay: RNA expression of MMP13 (RT-PCR) in IL-1β stimulated RAC; assay type: cell-based, Rabbit
Experimental: as §1, §2
NO and PGE2 production was measured using Cayman Chemicals (Bertin Pharma, France) following the manufacturer's protocol. NO production was estimated spectrophotometrically by measuring the accumulation of nitrites in the culture supernatants by Griess reaction using a standard curve prepared with sodium nitrite. PGE2 was estimated using a highly sensitive and specific Enzyme Immunoassay Kit. […] Primer sequences COX-2, iNoS and MMP13 was used to quantify the relative RNA expression. […]

[4] = test system: Rabbit Articular Chondrocytes (RAC); assay: Cellular viability of RAC (MTS assay and trypan blue exclusion); assay type: cell-based
Experimental: as §1
Cellular viability was measured using an MTS assay (Cell Titer 96™ MTS, Promega, France) as per manufacturer's instructions. Cells were also counted using a Malassez cell and cellular viability was assessed using trypan blue exclusion dye technique, which colours dead cells in blue.
Rabbit Articular Chondrocytes (RAC) were incubated with the different compounds separately or blended together to evaluate their cytotoxicity.

Chondroitin
Effect on COX2 expression (in words) [1]: seems to have no effect | COX2 Expression [1]: 10.7 | Effect on iNos expression (in words) [2]: seems to have no effect | iNoS Expression [2]: 5.3 | Effect on MMP13 expression (in words) [3]: seems to have no effect | Cellular toxicity (MTS measurements and Trypan blue exclusion) ([4]; 24 and 48 hours of incubation, large range of concentration (data not shown)): did not reveal any cellular toxicity

Collagen
Effect on COX2 expression (in words) [1]: decreases the expression | COX2 Expression [1]: 7.1 | Effect on iNos expression (in words) [2]: decreases the expression | iNoS Expression [2]: 3.9 | Effect on MMP13 expression (in words) [3]: decreases the expression | Cellular toxicity (MTS measurements and Trypan blue exclusion) [4]: did not reveal any cellular toxicity
